Test results taken from patent US20080220446A1, “Method for Detecting and/or Removing Protein and/or Peptide Comprising a Cross-Beta Structure From an Aqueous Solution Comprising a Protein” (priority 2005, published 2008).
“And” between values parts separate entries of the source, which are not always exact repeats. Equal entries are not always repeated.

Tests used:
[1] = molecular target: T1, LRP cl-IV binding to BSA-AGE (Bos taurus, UniProt P02769); assay: ELISA, interference with LRP cl-IV binding to BSA-AGE; design: species or system human; settings: concentration series, 50 times diluted LRP cl-IV medium
T1 construct: made in house; host or cells: HEK293E/S (LRP cl-IV, culture supernatant)
T1 sequence (P02769 25-607): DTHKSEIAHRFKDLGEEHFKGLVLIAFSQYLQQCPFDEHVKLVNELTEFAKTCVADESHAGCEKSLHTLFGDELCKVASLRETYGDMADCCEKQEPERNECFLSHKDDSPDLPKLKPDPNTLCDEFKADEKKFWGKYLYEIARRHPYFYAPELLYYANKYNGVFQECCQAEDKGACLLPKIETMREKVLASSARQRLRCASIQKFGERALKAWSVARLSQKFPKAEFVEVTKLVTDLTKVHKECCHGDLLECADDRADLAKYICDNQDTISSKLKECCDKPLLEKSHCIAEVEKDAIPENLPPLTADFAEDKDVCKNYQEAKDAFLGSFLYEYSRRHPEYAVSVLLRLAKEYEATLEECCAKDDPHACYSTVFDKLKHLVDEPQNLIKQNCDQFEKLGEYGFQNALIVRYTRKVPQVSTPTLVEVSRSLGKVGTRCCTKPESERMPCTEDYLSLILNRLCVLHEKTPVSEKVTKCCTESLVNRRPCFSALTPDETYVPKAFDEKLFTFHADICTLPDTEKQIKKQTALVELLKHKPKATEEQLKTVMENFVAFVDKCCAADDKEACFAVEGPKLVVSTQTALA
Experimental: To test whether amyloid-like crossbeta structure binding compounds tPA, Congo red, Thioflavin T and Thioflavin S interfere with LRP cl-IV binding to BSA-AGE, concentration series of the potential inhibitory amyloid binding moieties were tested in the presence of 50 times diluted medium containing LRP cl-IV. The following inhibitors were used: tPA, Congo red, Thioflavin T (ThT) and Thioflavin S (ThS). As a control to tPA, K2P tPA, which lacks the amyloid-like misfolded protein binding finger domain, was included in the analyses. The influence of tPA and K2P tPA was tested in the presence of 10 mM ε-amino caproic acid to avoid binding of the kringle2 domain of tPA and K2P tPA to lysine- and arginine residues. Binding buffer and K2P tPA serve as negative controls in these inhibition studies. The concentration series was measured in triplicate, the values averaged and standard deviations calculated. Background signals obtained with buffer-coated wells were subtracted. Signals obtained with binding of LRP cluster IV to BSA-AGE was set arbitrarily to a reference binding of 100% and signals obtained with the concentration series of misfolded protein binding moieties and K2P tPA were calculated based on this set reference.

platelets = assay: Aggregometric assay with washed platelets; type: cell-based, human; settings: Homo sapiens, Platelet; 200 μM; read-out: inhibition of platelet aggregation
Experimental: The presence of protein(s) and/or peptide(s) with amyloid-like misfolded protein conformation on activated blood platelets was tested with washed platelets in an aggregometric assay. Freshly drawn human aspirin free blood was mixed gently with citrate buffer to avoid coagulation. Blood was spinned for 15 minutes at 150*g at 20° C. and supernatant was collected; platelet rich plasma (PRP). […] After spinning down the platelets upon centrifugation for 15 minutes at 330*g at 20° C., the pellet was resuspended in HEPES-Tyrode buffer pH 6.5. Prostacyclin was added to a final concentration of 10 ng/ml, and the solution was centrifuged for 15 minutes at 330*g at 20° C., with a soft brake. The pellet was resuspended in HEPES-Tyrode buffer pH 7.2 in a way that the final platelet number was adjusted to 200,000/μl. Platelets were kept at 37° C. for at least 30 minutes, before use in the assays, to ensure that they were in the resting state.
For the aggregometric assays, 400 μl platelet solution was added to a glass tube with 100 μl containing the agonist of interest, fibrinogen and CaCl2. Final concentrations of fibrinogen and CaCl2 were 0.5 mg/ml and 3 mM, respectively. A stirring magnet was added and the apparatus (Whole-blood aggregometer, Chrono-log, Havertown, Pa., USA) was blanked. Aggregation was followed in time by measuring the absorbance of the solution, that will decrease in time upon platelet aggregation. As a positive control, 0.5 U/ml thrombin was used, or TRAP. Aggregation was followed for 10 minutes. Influence of 200 μM Thioflavin T, 200 μM Congo red or 1 μM tPA on platelet aggregation was analyzed.

[2] = system: tPA binding to amyloid-like aggregates; settings: ELISAs; patent application P57716EP00 and unpublished data; cited from earlier work
tPA [3] = molecular target: T2, tPA (Homo sapiens, UniProt P00750); assay: tPA ELISA with coated protein therapeutics; type: binding; settings: ELISA, stored at the recommended temperature of 4° C.
T2 sequence (P00750 36-562): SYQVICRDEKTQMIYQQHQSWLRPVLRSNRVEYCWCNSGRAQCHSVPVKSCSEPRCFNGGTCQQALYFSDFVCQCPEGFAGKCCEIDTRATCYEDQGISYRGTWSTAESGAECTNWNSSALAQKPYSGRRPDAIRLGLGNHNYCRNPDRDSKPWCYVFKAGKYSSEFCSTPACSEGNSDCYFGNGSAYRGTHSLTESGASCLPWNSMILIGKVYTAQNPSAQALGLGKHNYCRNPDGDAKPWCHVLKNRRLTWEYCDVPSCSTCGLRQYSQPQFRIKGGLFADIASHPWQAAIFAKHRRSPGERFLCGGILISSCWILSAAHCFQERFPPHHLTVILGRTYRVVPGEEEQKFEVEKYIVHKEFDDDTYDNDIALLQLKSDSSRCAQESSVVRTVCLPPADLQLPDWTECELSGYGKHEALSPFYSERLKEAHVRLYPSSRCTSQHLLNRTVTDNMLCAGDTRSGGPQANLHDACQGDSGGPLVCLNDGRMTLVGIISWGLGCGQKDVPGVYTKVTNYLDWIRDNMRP
Experimental: (§1) Formulated protein therapeutics were obtained from the local hospital pharmacy and were used as supplied by the manufacturers. […] Lyophilized therapeutics were dissolved according to the manufacturers recommendations. GH, zinc-insulin, Cealb and gelatin were stored at −20, 4, room temperature, 37 and 65° C. Other protein therapeutics were only kept at 4° C., and assayed for the presence of cross-β structure at shown time points. Enhancement in fluorescence of ThT and Congo red was measured with all formulated protein therapeutics. For this purpose, proteins were diluted to the indicated concentrations. […] Zinc-insulin was diluted tenfold in the activation assay, GH was diluted to a final concentration of 500 μg ml^−1. Activation of factor XII and prekallikrein by the therapeutics was tested in the chromogenic factor XII assay (see above). […] After coating, plates were blocked with Blocking Reagent (Roche Diagnostics, Almere, The Netherlands).

factor XII = molecular target: T3, factor XII (Homo sapiens, UniProt P00748); assay: Factor XII / prekallikrein activation assay (Chromozym-PK); type: biochemical
T3 construct: purified human factor XII from plasma (Calbiochem); purchased Calbiochem; host or cells: human plasma
T3 sequence (P00748 20-615): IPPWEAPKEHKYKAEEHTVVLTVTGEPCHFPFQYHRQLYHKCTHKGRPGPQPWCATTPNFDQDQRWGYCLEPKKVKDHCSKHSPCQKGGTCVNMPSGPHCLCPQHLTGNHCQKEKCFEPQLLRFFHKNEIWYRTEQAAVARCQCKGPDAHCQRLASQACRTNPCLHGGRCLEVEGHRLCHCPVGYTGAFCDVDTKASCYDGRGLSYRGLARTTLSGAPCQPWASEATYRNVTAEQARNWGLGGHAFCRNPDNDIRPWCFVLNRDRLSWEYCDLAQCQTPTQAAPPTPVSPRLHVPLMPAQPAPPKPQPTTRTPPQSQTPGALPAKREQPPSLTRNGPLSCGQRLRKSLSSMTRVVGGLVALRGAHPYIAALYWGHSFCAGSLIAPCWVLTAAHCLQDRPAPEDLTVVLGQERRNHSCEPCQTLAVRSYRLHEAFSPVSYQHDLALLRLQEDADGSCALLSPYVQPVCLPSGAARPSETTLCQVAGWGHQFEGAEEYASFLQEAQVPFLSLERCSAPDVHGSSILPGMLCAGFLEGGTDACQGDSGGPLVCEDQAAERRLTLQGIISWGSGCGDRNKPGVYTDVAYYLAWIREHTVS
Experimental: Plasmin (Pls) activity was assayed as described^16. Peptides and proteins that were tested for their stimulatory ability were regularly used at 100 μg ml^−1. […] Chromogenic substrate S-2251 (Chromogenix, Instrumentation Laboratory SpA, Milano, Italy) was used to measure Pls activity. Conversion of zymogen factor XII (#233490, Calbiochem, EMD Biosciences, Inc., San Diego, Calif.) to proteolytically active factor XII (factor XIIa) was assayed by measurement of the conversion of chromogenic substrate Chromozym-PK (Roche Diagnostics, Almere, The Netherlands) by kallikrein. Chromozym-PK was used at a concentration of 0.3 mM. Factor XII, human plasma prekallikrein (#529583, Calbiochem) and human plasma cofactor high-molecular weight kininogen (#422686, Calbiochem) were used at concentrations of 1 μg ml^−1. […] Assays were performed using microtiter plates (Costar, Cambridge, Mass., USA). Peptides and proteins were tested for their ability to activate factor XII. […] The conversion of Chromozym-PK was recorded kinetically at 37° C. for at least 60 minutes. […]
Formulated protein therapeutics were obtained from the local hospital pharmacy and were used as supplied by the manufacturers. […] Enhancement in fluorescence of ThT and Congo red was measured with all formulated protein therapeutics. […]

[4] = Congo red fluorescence of protein solutions; type: physicochemical
Experimental: Background signals from buffer, buffer with Congo red and protein/peptide solution without Congo red were subtracted from corresponding measurements with protein solution incubated with Congo red. Fluorescence was measured in triplicate on a Hitachi F-4500 fluorescence spectrophotometer (Ltd., Tokyo, Japan).
as §1

Fn F4-5 = molecular target: T4, Fn F4-5 (Homo sapiens, UniProt P02751); assay: Biacore surface plasmon resonance, binding to immobilized Fn F4-5
T4 construct: amino-acids NH2—I182-V276-COOH of Fn F4-5; made in house; host or cells: Saccharomyces cerevisiae
T4 sequence (P02751 182-276): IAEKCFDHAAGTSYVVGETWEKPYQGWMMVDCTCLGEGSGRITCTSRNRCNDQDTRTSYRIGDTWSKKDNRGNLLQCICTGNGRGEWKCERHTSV
Experimental: Binding of cross-β structure containing peptides/proteins was studied using surface plasmon resonance technology with a Biacore 2000 apparatus (Biacore AB, Uppsala, Sweden). A standardized amine coupling procedure was used to couple proteins with F domains to a CM5 chip (Biacore AB, Uppsala, Sweden). First, the dextran surface of the chips was activated by a 35 μl injection with a 1:1 mixture of 0.1 M N-hydroxysuccinimide (NHS) and 0.4 M N-ethyl-N′-(dimethylaminopropyl)carbodiimide (EDC) at a flow rate of 5 μl min.^−1. Then, the proteins were covalently coupled to the activated dextran surface. Remaining activated groups in each of the four flow channels were blocked by injection of 35 μl of 1 M ethanolamine hydrochloride pH 8.5. EDC, NHS and ethanolamine hydrochloride were obtained from Biacore. On one chip, on channels 1 to 4, buffer (reference channel), the soluble extracellular part of receptor for advanced glycation endproducts (sRAGE), tPA and K2P-tPA were immobilized. […] Binding of albumin-AGE was determined with a solution of 3.9 μg ml^−1 albumin-AGE in running buffer. albumin-AGE was filtered on a Millex-GV 0.22 μm filter unit (Millipore). […] Binding of Hb-AGE was also tested after centrifugation for 10 min. at 16,000*g alternative to filtration. tPA activation before and after filtration was assessed with a Plg-activation assay. […]

tPA [5] = molecular target: T2, tPA; assay: Plasminogen-activation assay (tPA activation, S-2251); type: biochemical; settings: 100 μg ml^−1
Experimental: Plasmin (Pls) activity was assayed as described^16. Peptides and proteins that were tested for their stimulatory ability were regularly used at 100 μg ml^−1. […] Chromogenic substrate S-2251 (Chromogenix, Instrumentation Laboratory SpA, Milano, Italy) was used to measure Pls activity. Conversion of zymogen factor XII (#233490, Calbiochem, EMD Biosciences, Inc., San Diego, Calif.) to proteolytically active factor XII (factor XIIa) was assayed by measurement of the conversion of chromogenic substrate Chromozym-PK (Roche Diagnostics, Almere, The Netherlands) by kallikrein. Chromozym-PK was used at a concentration of 0.3 mM. Factor XII, human plasma prekallikrein (#529583, Calbiochem) and human plasma cofactor high-molecular weight kininogen (#422686, Calbiochem) were used at concentrations of 1 μg ml^−1. […] Assays were performed using microtiter plates (Costar, Cambridge, Mass., USA). Peptides and proteins were tested for their ability to activate factor XII. 150 μg ml^−1 kaolin, an established activator of factor XII was used as positive control and solvent (H2O) as negative control. The conversion of Chromozym-PK was recorded kinetically at 37° C. for at least 60 minutes. Assays were done in duplicate.
as §1
To prepare structurally altered ovalbumin (OVA) with amyloid cross-β structures, purified OVA (Sigma, A-7641, lot 071k7094) was heated to 85° C. One mg ml^−1 OVA in 67 mM NaPi buffer pH 7.0, 100 mM NaCl, was heated for two cycles in PCR cups in a PTC-200 thermal cycler (MJ Research, Inc., Waltham, Mass., USA). In each cycle, OVA was heated from 30 to 85° C. at a rate of 5° C./min. Native OVA (nOVA) and heat-denatured OVA (dOVA) were tested in the ThT fluorescence assay and in the Plg-activation assay. In the fluorescence assay and in the Plg-activation assay, 25 and 100 μg ml^−1 nOVA and dOVA were tested, respectively. TEM images of nOVA and dOVA were taken to check for the presence of large aggregates.
MSA (#126674, Calbiochem) was dissolved in 8 M urea, 100 mM Tris-HCl pH 8.2, at 10 mg ml^−1 final concentration. Dithiothreitol (DTT) was added to a final concentration of 10 mM. Air was replaced by N2 and the solution was incubated for 2 h at room temperature. Then, the solution was transferred to ice and iodoacetamide was added from a 1 M stock to a final concentration of 20 mM. […] Alkyl-MSA was dialyzed against H2O before use. […] In the ThT-fluorescence assay 25 μg ml^−1 nMSA and alkyl-MSA were tested, and in the Plg-activation assay 100 μg ml^−1 was tested. The presence of aggregates or fibrils was analyzed using TEM.
Lyophilized sterile glucagon was dissolved at 1 mg ml^−1 in H2O with 10 mM HCl. The solution was subsequently kept at 37° C. for 24 h, at 4° C. for 14 days and again at 37° C. for 9 days. […] TEM analysis was performed to assess the presence of large multimeric structures.

## Nc1c(/N=N/c2ccc(-c3ccc(/N=N/c4cc(S(=O)(=O)O)c5ccccc5c4N)cc3)cc2)cc(S(=O)(=O)O)c2ccccc12 [Congo red]
[1]
  influence on binding of LRP cl-IV to BSA-AGE: inhibit binding of LRP cl-IV to BSA-AGE to a large extent
platelets
  inhibition at 200 µM: ≤ 30%
[2]
  competition for tPA binding to amyloid-like aggregates: can efficiently compete for tPA binding

## Gelatin
tPA [3]
  binding of tPA: binding of tPA was established
Factor XII; kept at 37° C.
  activation of factor XII: activated factor XII
Factor XII; stored at 4° C.
  activation of the factor XII/prekallikrein contact system: not
[4]; stored at 4° C. and 37° C.
  enhancement of Congo red fluorescence: enhanced Congo red fluorescence in a storage temperature dependent manner
[4]; stored at the recommended storage temperature of 4° C.
  enhancement of Congo red fluorescence: enhanced the fluorescence of Congo red

## endostatin
Fn F4-5; Biacore, native Hb at 25 nM
  binding to the Fn F4-5 doublet: bound
Fn F4-5; immobilized Fn F4-5, Biacore CM5 chip, read-out: concentration of ligand that results in half maximum binding to Fn F4-5
  Kd: ≤ 800 nM and 800 nM
tPA [5]
  tPA activating properties: absence of tPA activating properties
